For assay [1], the target named is T1, activated human blood coagulation factor X (Homo sapiens, UniProt P00742).
T1 construct: purchased Enzyme Research Co
As to the kind of experiment: Determination of activity of inhibiting the activated blood-coagulation factor X (chromogenic substrate, initial rate). The assay is classed as biochemical. The following applies: negative logarithm of concentration inhibiting 50% of initial rate, tris hydrochloride buffer pH 8.4, room temperature; for IC50: read-out: Activity of inhibiting activated blood coagulation factor X (pIC50) (converted). Here is the method: Determination of Activity of inhibiting the Activated Blood-coagulation Factor X
130 μl of 100 mM tris hydrochloride buffer adjusted to pH 8.4 was added to 10 μl of an aqueous solution of a compound to be tested. Then 10 μl of a 0.5 unit/ml solution of activated human blood coagulation factor X (a product of Enzyme Research Co.) in tris hydrochloride buffer of pH 8.4 was added to the resultant mixture. After the incubation at room temperature for 10 minutes, 50 μl of a solution of N-benzoyl-L-isoleucyl-L-glutamyl-glycyl-L-arginyl-P-nitroanilide hydrochloride (a product of Peptide Institute Inc.) adjusted to 0.8 mM with tris hydrochloride (pH 8.4) was added thereto. The a absorbance was determined and then the initial reaction rate was determined. A control was prepared in the same manner as that described above except that the solution of the compound to be tested was replaced with 10 μl of tris hydrochloride buffer adjusted to pH 8.4. The absorbance was determined with MICROPLATE READER Model 3550-UV (a product of BIO RAD) at a wave length of 405 nm at intervals of 15 seconds for 16 minutes.

The target of the next assay is T2, human thrombin (Homo sapiens, UniProt P00734).
T2 construct: solution of human thrombin (a product of SIGMA Co.); purchased SIGMA Co
The assay is described as follows: Determination of thrombin-inhibiting activity (chromogenic substrate S-2238, initial rate). The following applies: negative logarithm of concentration inhibiting 50% of initial rate, tris hydrochloride buffer pH 8.4, room temperature; for IC50: read-out: Thrombin-inhibiting activity (pIC50) (converted). The assay is classed as biochemical. The method, then: Determination of Thrombin-inhibiting Activity
130 μL of 100 mM tris hydrochloride buffer adjusted to pH 8.4 was added to 10 μl of an aqueous solution of a test compound. Then 10 μl of a solution of human thrombin (a product of SIGMA Co.) adjusted to 2 units/ml with tris hydrochloride buffer of pH 8.4 was added to the resultant mixture. After the incubation at room temperature for 10 minutes, 50 μl of a solution of D-phenylalanine-L-pipecolyl-L-arginine-P-nitroanilide dihydrochloride (S-2238; a product of Daiichi Kagaku Yakuhin Co.) adjusted to 0.4 mM with tris hydrochloride buffer of pH 8.4 was added thereto. The absorbance was determined and then the initial reaction rate was determined. A control was prepared in the same manner as that described above except that the solution of the compound to be tested was replaced with 10 μl of tris hydrochloride buffer adjusted to pH 8.4. The absorbance was determined with MICROPLATE READER Model 3550-UV (a product of BIO RAD) at a wave length of 405 nm at intervals of 15 seconds for 16 minutes. The negative logarithm (pIC50) of a concentration of the test compound which inhibits 50% of the activity (initial rate) of the thrombin in the absence of the test compound was determined, and employed as the index of the activity of inhibiting thrombin.

The subject of the next assay is blood plasma. The assay is described as follows: Determination of blood anticoagulating activity by prothrombin time (PT) determination method. The assay is classed as biochemical, human. The conditions noted are these: negative logarithm of concentration which elongated PT of the control to twice as long; blood plasma of healthy people. The method, then:
Determination of Blood Anticoagulating Activity
The blood anticoagulating activity was determined by a prothrombin time (PT) determination method. The PT was determined as follows: The blood was taken from healthy people. 3.8% aqueous trisodium citrate solution was added to the blood in a volume ratio of 1:10. The blood plasma was separated by the centrifugation. 5 μl of DMSO solution containing a test compound was added to 45 μl of the blood plasma. After the incubation apt room temperature for 2 minutes, a test tube containing the blood plasma solution was placed in Sysmex CA-3000 fully automatic blood coagulation determination device (a product of Toa Medical Electronics Co., Ltd), and incubated at 37° C. for 3 minutes. 100 μl of Sysmex PT II (rabbit brain tissue thromboplastin, 13.2 mM calcium chloride; a product of Toa Medical Electronics Co., Ltd) was fed into the test tube. PT was automatically determined with the device. A sample containing 5 μl of DMSO in place of the solution of the test compound was used as the control. The negative logarithm (pPT2) of the concentration of the test compound which elongated PT of the control to the twice as long was determined, and employed as the index of the blood anticoagulating activity.

SMILES strings stand for the structures. Where only a bound is given, the exact number is not on record here.

T1 sequence (P00742 235-488 limits assumed): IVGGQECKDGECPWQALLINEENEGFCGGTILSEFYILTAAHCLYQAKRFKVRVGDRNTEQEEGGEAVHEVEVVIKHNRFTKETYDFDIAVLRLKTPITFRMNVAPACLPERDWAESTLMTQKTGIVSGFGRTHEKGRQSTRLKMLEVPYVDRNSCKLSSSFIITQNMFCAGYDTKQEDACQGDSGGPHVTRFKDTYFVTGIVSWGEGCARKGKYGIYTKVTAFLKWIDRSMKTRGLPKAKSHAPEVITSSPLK
T1 sequence (P00742 41-179 partner limits assumed): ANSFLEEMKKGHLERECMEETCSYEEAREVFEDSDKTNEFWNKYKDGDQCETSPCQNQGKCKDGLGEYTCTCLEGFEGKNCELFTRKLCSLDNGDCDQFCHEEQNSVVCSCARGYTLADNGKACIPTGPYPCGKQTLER

Regarding `O=C(c1ccc(CN2C(=O)CN(C(=O)c3ccc(Cl)cc3)Cc3ccc(CCP(=O)(O)O)cc32)cc1)N1CCCC1` [Compd. of Ex. 71-1, [2-(4-(4-chlorobenzoyl)-2-oxo-1-(4-(1-pyrrolidinecarbonyl)benzyl)-2,3,4,5-tetrahydro-1H-benzo[e][1,4]-diazepin-8-yl)ethyl]phosphonic acid], the IC50 in assay [1] is 25.1 nM; at human thrombin it was 31600 nM. For the same molecule, the “Human blood anticoagulating activity (pPT2)” value with blood plasma was found to be 5.0.

Take `O=C(O)C(F)(F)F.O=C(c1ccc(CN2C(=O)CN(C(=O)c3ccc(Cl)cc3)Cc3ccc(CCCN4CCCCC4)cc32)cc1)N1CC=CC1` [Compd. of Ex. 93, 8-(3-piperidin-1-yl-propyl)-1-[4-(2,5-dihydro-1H-pyrrol-1-ylcarbonyl)benzyl]-4-(4-chlorobenzoyl)-1,3,4,5-tetrahydro-benzo[e][1,4]diazepin-2-on trifluoroacetate]: the IC50 in assay [1] was 79.4 nM; on human thrombin, 63100 nM. Besides, in the assay with blood plasma, the “Human blood anticoagulating activity (pPT2)” value was found to be 5.5.

For the molecule `CCOC(=O)c1ccc2c(c1)N(Cc1ccc(C3=NCCN3C)cc1)C(=O)CN(C(=O)c1ccc(Cl)cc1)C2.O=C(O)C(F)(F)F` [Compd. of Ex. 204, ethyl 4-(4-chlorobenzoyl)-2-oxo-1-[4-(1-methyl-4,5-dihydro-1H-imidazol-2-yl)benzyl]-2,3,4,5-tetrahydro-1H-benzoyl[e][1,4]diazepine-8-carboxylate trifluoroacetate], the “Activity of inhibiting activated blood coagulation factor X (pIC50)” value in assay [1] was 6.5. For the same molecule, the “Thrombin-inhibiting activity (pIC50)” value at human thrombin was below 4.0. Also, the “Human blood anticoagulating activity (pPT2)” value in the assay on blood plasma was determined as 5.2.

In the case of `CC(=N)N1CCC(Oc2ccc(CN3C(=O)CN(C(=O)c4ccc(Cl)cc4)Cc4ccc(C(=O)O)cc43)cc2)CC1.O=C(O)C(F)(F)F` [Compd. of Ex. 43, 4-(4-chlorobenzoyl)-2-oxo-1-[4-(1-(1-acetimidoyl)-4-piperidyloxy)benzyl]-2,3,4,5-tetrahydro-1H-benzo[e][1,4]-diazepine-8-carboxylic acid trifluoroacetate], the “Activity of inhibiting activated blood coagulation factor X (pIC50)” value in assay [1] came out at 6.9. The “Thrombin-inhibiting activity (pIC50)” value at human thrombin is below 4.0. In addition, the “Human blood anticoagulating activity (pPT2)” value in the assay on blood plasma is 5.2.

With `O=C(CCc1ccc2c(c1)N(Cc1ccc(C(=O)N3CC=CC3)cc1)C(=O)CN(C(=O)c1ccc(Cl)cc1)C2)N1CCOCC1` [Compd. of Ex. 68, 4-(4-chlorobenzoyl)-8-(3-morpholine-4-yl-3-oxopropyl)-1-[4-(2,5-dihydro-1H-pyrrol-1-ylcarbonyl)benzyl]-1,3,4,5-tetrahydrobenzo[e][1,4]diazepin-2-on], the figures for the IC50 (in assay [1]; at human thrombin) were 39.8 nM and 63100 nM, respectively. Moreover, the “Human blood anticoagulating activity (pPT2)” value with blood plasma was determined as 5.2.

On to `O=C(O)C(F)(F)F.O=C(c1ccc(Br)s1)N1CC(=O)N(CC2CCN(c3ccncc3)CC2)c2ccccc2C1` [Compd. of Ex. 25, 4-(5-bromothiophene-2-carbonyl)-1-[1-(4-pyridyl)-4-piperidylmethyl]-1,3,4,5-tetrahydrobenzo[e][1,4]diazepin-2-on trifluoroacetate], for which the IC50 in assay [1] is 398 nM; on human thrombin, above 100000 nM. For the same molecule, the “Human blood anticoagulating activity (pPT2)” value in the assay on blood plasma worked out at 4.9.

With `O=C(c1ccc(CN2C(=O)CN(C(=O)c3ccc(Cl)cc3)Cc3ccccc32)cc1)N1CC=CC1` [Compd. of Ex. 49, 1-[4-(2,5-dihydro-1H-pyrrol-1-ylcarbonyl)benzyl]-4-(4-chlorobenzoyl)-1,3,4,5-tetrahydrobenzo[e][1,4]-diazepin-2-on], the values for the IC50 (in assay [1]; on human thrombin) were 31.6 nM and 50100 nM, respectively. Besides, the “Human blood anticoagulating activity (pPT2)” value in the assay on blood plasma came to 5.0.

Regarding `CCOC(=O)c1ccc2c(c1)N(Cc1ccc(C3=[N+](C)CCN3C)cc1)C(=O)CN(C(=O)c1ccc(Cl)cc1)C2.O=C([O-])C(F)(F)F` [Compd. of Ex. 206, 2-[4-((4-(4-chlorobenzoyl)-8-(ethoxycarbonyl)-2-oxo-2,3,4,5-tetrahydro-1H-1,4-benzodiazepin-1-yl)methyl)phenyl]-1,3-dimethyl-4,5-dihydro-1H-imidazol-3-ium trifluoroacetate], the IC50 was 200 nM in assay [1] and above 100000 nM on human thrombin. Besides, the “Human blood anticoagulating activity (pPT2)” value in the assay with blood plasma turned out to be 5.5.

On to `CC(C)N1CCC(CCN2C(=O)CN(C(=O)c3ccc(Cl)cc3)Cc3ccccc32)CC1.O=C(O)C(F)(F)F` [Compd. of Ex. 169, 4-(4-chlorobenzoyl)-1-[2-(1-isopropyl-4-piperidinyl)ethyl]-1,3,4,5-tetrahydrobenzo[e][1,4]diazepin-2-on trifluoroacetate], for which the figures for the IC50 (in assay [1]; at human thrombin) were 316 nM and above 100000 nM, respectively. Moreover, the “Human blood anticoagulating activity (pPT2)” value with blood plasma is listed as 5.4.

In the case of `CC(=N)N1CCC(Oc2ccc(CN3C(=O)CN(C(=O)c4ccc(Cl)cc4)Cc4c(Cl)cccc43)cc2)CC1.O=C(O)C(F)(F)F` [Compd. of Ex. 39, 6-chloro-4-(4-chlorobenzoyl)-1-[4-(1-(1-acetimidoyl)-4-piperidyloxy)benzyl]-1,3,4,5-tetrahydrobenzo[e][1,4]diazepin-2-on trifluoroacetate], the “Activity of inhibiting activated blood coagulation factor X (pIC50)” value in assay [1] is listed as 6.7. In addition, the “Thrombin-inhibiting activity (pIC50)” value on human thrombin was below 4.0. Moreover, the “Human blood anticoagulating activity (pPT2)” value with blood plasma is listed as 4.8.

With `O=C(O)C(F)(F)F.O=C(c1ccc(Br)cc1)N1CC(=O)N(CC2CCN(c3ccncc3)CC2)c2ccccc2C1` [Compd. of Ex. 9, 4-(4-bromobenzoyl)-1-[1-(4-pyridyl)-4-piperidylmethyl]-1,3,4,5-tetrahydrobenzo[e][1,4]diazepin-2-on trifluoroacetate], the IC50 is 501 nM in assay [1] and above 100000 nM at human thrombin. The “Human blood anticoagulating activity (pPT2)” value in the assay with blood plasma turned out to be 4.9.
